According to patent US20200216416A1, “QUINOLINE COMPOUNDS AS INHIBITORS OF TAM AND MET KINASES” (Array BioPharma Inc., priority 2019, published 2020):
Read-outs that look alike come from different tables or passages of the source.

Key:
MDR1 (P-gp) = molecular target: T1, MDR1 (P-gp) (Homo sapiens, UniProt P08183); experiment: MDR1 LLC-PK1 permeability assay; type: in vitro ADME; conditions: pig, MDR1 transfected LLC-PK1 cells; for Papp at 2 h, 1 μM: permeability coefficient (Papp)
T1 construct: expressed in transfected cells; host or cells: LLC-PK1
T1 sequence (P08183 whole entry): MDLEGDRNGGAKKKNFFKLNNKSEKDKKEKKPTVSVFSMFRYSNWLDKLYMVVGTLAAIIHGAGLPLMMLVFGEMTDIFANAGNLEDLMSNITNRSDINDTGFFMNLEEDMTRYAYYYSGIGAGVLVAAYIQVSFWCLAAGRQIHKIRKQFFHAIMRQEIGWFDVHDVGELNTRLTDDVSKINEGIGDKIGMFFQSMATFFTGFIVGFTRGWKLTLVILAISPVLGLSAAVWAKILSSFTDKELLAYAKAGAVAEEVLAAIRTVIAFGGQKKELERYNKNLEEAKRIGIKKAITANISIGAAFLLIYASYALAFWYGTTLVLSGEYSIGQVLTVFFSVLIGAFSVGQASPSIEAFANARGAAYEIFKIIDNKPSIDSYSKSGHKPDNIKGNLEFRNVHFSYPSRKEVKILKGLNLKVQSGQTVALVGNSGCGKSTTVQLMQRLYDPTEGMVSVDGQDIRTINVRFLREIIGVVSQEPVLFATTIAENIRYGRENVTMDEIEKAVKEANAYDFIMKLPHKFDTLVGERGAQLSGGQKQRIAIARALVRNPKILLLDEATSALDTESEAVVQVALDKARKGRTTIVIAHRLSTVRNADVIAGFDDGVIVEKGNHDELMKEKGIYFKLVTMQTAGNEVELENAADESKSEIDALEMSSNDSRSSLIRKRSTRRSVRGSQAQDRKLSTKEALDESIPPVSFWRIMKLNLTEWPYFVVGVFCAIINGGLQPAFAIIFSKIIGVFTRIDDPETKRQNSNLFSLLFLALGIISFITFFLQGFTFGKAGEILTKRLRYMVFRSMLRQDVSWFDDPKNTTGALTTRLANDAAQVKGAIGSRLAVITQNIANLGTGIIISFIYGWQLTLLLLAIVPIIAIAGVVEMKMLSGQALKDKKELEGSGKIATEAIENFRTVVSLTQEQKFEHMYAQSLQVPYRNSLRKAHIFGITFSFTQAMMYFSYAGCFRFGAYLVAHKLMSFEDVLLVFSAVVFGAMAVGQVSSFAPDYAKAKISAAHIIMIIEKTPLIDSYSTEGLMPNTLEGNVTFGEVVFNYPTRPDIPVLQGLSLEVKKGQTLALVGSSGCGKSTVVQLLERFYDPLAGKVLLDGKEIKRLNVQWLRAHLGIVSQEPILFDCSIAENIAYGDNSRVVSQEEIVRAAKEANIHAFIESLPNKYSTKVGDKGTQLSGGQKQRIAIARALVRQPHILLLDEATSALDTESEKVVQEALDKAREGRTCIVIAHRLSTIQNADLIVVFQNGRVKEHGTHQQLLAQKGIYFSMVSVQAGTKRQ
Procedure: MDR1 transfected LLC-PK1 cells were cultured and plated according to manufacturer's recommendations with the exception that the passage media contained only 2% fetal bovine serum to extend passage time out to seven days.
Both positive and negative controls were used to assess functionality of P-gp efflux in the assay. Stock solutions for assay controls and the test article were prepared in DMSO for final test concentrations of 10 and 1 μM, respectively. Final organic concentration in the assay was 1%. All dosing solutions contained 10 μM lucifer yellow to monitor LLC-PK1 cell monolayer integrity.
For the apical to basolateral determination (A to B), 75 μL of the test article in transport buffer were added to the apical side of the individual transwells and 250 μL of basolateral media, without compound or lucifer yellow, were added to each well. For the basolateral to apical determination (B to A), 250 μL of test article in transport buffer were added to each well and 75 μL transport buffer, without compound or lucifer yellow, were added to each transwell. All tests were performed in triplicate, and each compound was tested for both apical to basolateral and basolateral to apical transport. The plates were incubated for 2 hours on a Lab-Line Instruments Titer Orbital Shaker (VWR, West Chester, Pa.) at 50 rpm and 37° C. with 5% CO2. All culture plates were removed from the incubator and 50 μL of media were removed from the apical and basolateral portion of each well and added to 150 μL of 1 μM labetalol in 2:1 acetonitrile (acetonitrile): H2O, v/v.
The plates were read using a Molecular Devices (Sunnyvale, Calif.) Gemini Fluorometer to evaluate the lucifer yellow concentrations at excitation/emission wavelengths of 425/535 nm. These values were accepted when found to be below 2% for apical to basolateral and 5% basolateral to apical flux across the MDR1-transfected LLC-PK1-transfected cell monolayers. The plates were sealed and the contents of each well analyzed by LC-MS/MS. The compound concentrations were determined from the ratio of the peak areas of the compound to the internal standard (labetalol) in comparison to the dosing solution.
The LC-MS/MS system was comprised of an HTS-PAL autosampler (Leap Technologies, Carrboro, N.C.), an HP1200 HPLC (Agilent, Palo Alto, Calif.), and a MDS Sciex 4000 Q Trap system (Applied Biosystems, Foster City, Calif.). […] The total run time, including re-equilibration, for a single injection was 1.2 minutes. Mass spectrometric detection of the analytes was accomplished using the ion spray positive mode. Analyte responses were measured by multiple reaction monitoring (MRM) of transitions unique to each compound (the protonated precursor ion and selected product ions for each test article and m/z 329 to m/z 162 for labetalol, the internal standard).
The permeability coefficient (Papp) is calculated from the following equation: […]
where Cd, V, t and C0 are the detected concentration (μM), the volume on the dosing side (mL), the incubation time (s) and the initial dosing concentration (μM), respectively. The calculations for Papp were made for each replicate and then averaged. In this assay, a compound is defined has having high permeability if the permeability is greater than 8×10^−6 cm/sec, a compound is defined has having medium permeability if the permeability is from 2×10^−6 cm/sec to 8×10^−6 cm/sec, and a compound is defined has having low permeability if the permeability is less than 2×10^−6 cm/sec.
An efflux ratio was calculated from the mean apical to basolateral (A-B) Papp data and basolateral to apical (B-A) Papp data:
Efflux ratio=Papp(B−A)/Papp(A−B)

[1] = molecular target: T2, His-tagged recombinant human AXL cytoplasmic domain (Homo sapiens, UniProt P30530); experiment: AXL Enzyme Assay (LanthaScreen Eu Kinase Binding); conditions: averaged IC50; 60-minute incubation at 22° C.; TR-FRET
T2 construct: His-tagged recombinant human AXL cytoplasmic domain
T2 sequence (P30530 473-894 limits assumed): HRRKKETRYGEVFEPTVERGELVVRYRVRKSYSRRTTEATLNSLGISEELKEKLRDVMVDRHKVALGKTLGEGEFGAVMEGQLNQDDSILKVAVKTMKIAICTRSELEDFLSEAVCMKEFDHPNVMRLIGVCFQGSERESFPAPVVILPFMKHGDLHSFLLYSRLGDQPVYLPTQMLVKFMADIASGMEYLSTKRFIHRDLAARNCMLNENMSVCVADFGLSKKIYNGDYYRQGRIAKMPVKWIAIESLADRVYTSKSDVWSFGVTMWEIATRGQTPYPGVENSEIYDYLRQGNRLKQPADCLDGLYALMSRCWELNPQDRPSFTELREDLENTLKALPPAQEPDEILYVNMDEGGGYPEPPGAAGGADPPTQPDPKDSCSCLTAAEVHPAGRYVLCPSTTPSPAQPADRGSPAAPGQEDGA
Procedure: Compounds disclosed herein were screened for their ability to inhibit AXL kinase using Invitrogen's LanthaScreen™Eu Kinase Binding technology. His-tagged recombinant human AXL cytoplasmic domain was incubated with 20 nM Alexa-Fluor® Tracer 236 (PR9078A), 2 nM biotinylated anti-His (Cat. No. M4408), and 2 nM europium-labeled Streptavidin (Cat. No. PV5899) along with test compound in a buffer consisting of 25 mM HEPES, pH 7.4, 10 mM MgCl2, 0.01% Triton X-100, and 2% DMSO. Compounds were typically prepared in a threefold serial dilution in DMSO and added to the assay to give the appropriate final concentration. After a 60-minute incubation at 22° C., the reaction was measured using a PerkinElmer EnVision multimode plate reader via TR-FRET dual wavelength detection, and the percent of control (POC) was calculated using a ratiometric emission factor. […] The POC values are fit to a 4 parameter logistic curve and the IC50 value is point where the curve crosses 50 POC.

[2] = LLC-PK1, efflux ratio = Papp(B-A)/Papp(A-B), read-out: MDR1 Pe Ratio
[3] = LLC-PK1, Papp(B−A)/Papp(A−B), test article 1 μM, 2 hours, 37° C., read-out: Efflux ratio

Row | Structure (SMILES) | efflux ratio at 2 h, 1 μM (MDR1 (P-gp); [2]) | Papp at 2 h, 1 μM (MDR1 (P-gp)) [nm/s] | IC50 [1] [nM] | efflux ratio at 2 h, 1 μM (MDR1 (P-gp); [3])
1 | COc1cc2nccc(Oc3ccc(NC(=O)c4cn(CC(=O)N(C)C)cc(-c5ccc(F)cc5F)c4=O)nc3)c2cc1OC [Example 13, 5-(2,4-difluorophenyl)-N-(5((6,7-dimethoxyquinolin-4-yl)oxy)pyridin-2-yl)-1-(2-(dimethylamino)-2-oxoethyl)-4-oxo-1,4-dihydropyridine-3-carboxamide] | 112 | 60 | 2 | –
2 | COc1cc2nccc(Oc3ccc(NC(=O)c4cn(CC(=O)N5CCCC5)cc(-c5ccc(F)cc5F)c4=O)nc3)c2cc1OC [Example 14] | 125 | 100 | 2 | –
3 | COc1cc2nccc(Oc3ccc(NC(=O)c4cn(CC(=O)N5CCOCC5)cc(-c5ccc(F)cc5F)c4=O)nc3)c2cc1OC [Example 15, 5-(2,4-difluorophenyl)-N-(5-((6,7-dimethoxyquinolin-4-yl)oxy)pyridin-2-yl)-1-(2-morpholino-2-oxoethyl)-4-oxo-1,4-dihydropyridine-3-carboxamide] | 135 | 20 | 2 | –
4 | CCC(CC)n1cc(C(=O)Nc2ccc(Oc3ccnc4cc(OC)c(OC)cc34)cn2)c(=O)c(-c2ccc(F)cc2F)c1 [Example 16, 5-(2,4-difluorophenyl)-N-(5-((6,7-dimethoxyquinolin-4yl)oxy)pyridin-2-yl)-4-oxo-1-(pentan-3-yl)-1,4-dihydropyridine-3-carboxamide] | 2 | 40 | 4 | 3.5
5 | CCCC(CCC)n1cc(C(=O)Nc2ccc(Oc3ccnc4cc(OC)c(OC)cc34)cn2)c(=O)c(-c2ccc(F)cc2F)c1 [Example 17, 5-(2,4-difluorophenyl)-N-(5-((6,7-dimethoxyquinolin-4yl)oxy)pyridin-2-yl)-1-(heptan-4-yl)-4-oxo-1,4-dihydropyridine-3-carboxamide] | 24 | < 10 | 28 | –
6 | COc1cc2nccc(Oc3ccc(NC(=O)c4cn(C(C)C)cc(-c5ccc(F)cc5Cl)c4=O)nc3)c2cc1OC [Example 18, 5-(2-chloro-4-fluorophenyl)-N-(5-((6,7-dimethoxyquinolin-4-yl)oxy)pyridin-2-yl)-1-isopropyl-4-oxo-1,4-dihydropyridine-3-carboxamide] | 2.1 | 110 | 2 | 3.5
7 | COc1cc2nccc(Oc3ccc(NC(=O)c4cn(C(C)C)cc(-c5ccc(F)cc5C)c4=O)nc3)c2cc1OC [Example 19, N-(5-((6,7-dimethoxyquinolin-4yl)oxy)pyridin-2-yl)-5-(4-fluoro-2-methylphenyl)-1-isopropyl-4-oxo-1,4-dihydropyridine-3-carboxamide] | 2.8 | 110 | 2 | 3.5
8 | COc1cc(-c2cn(C(C)C)cc(C(=O)Nc3ccc(Oc4ccnc5cc(OC)c(OC)cc45)cn3)c2=O)ccc1F [Example 20, N-(5-((6,7-dimethoxyquinolin-4yl)oxy)pyridin-2-yl)-5-(4-fluoro-3-methoxyphenyl)-1-isopropyl-4-oxo-1,4-dihydropyridine-3-carboxamide] | 3.6 | 90 | 3 | –
9 | COc1cc2nccc(Oc3ccc(NC(=O)c4cn(C(C)C)cc(-c5ccc(F)c(Cl)c5)c4=O)nc3)c2cc1OC [Example 21, 5-(3-chloro-4-fluorophenyl)-N-(5-((6,7-dimethoxyquinolin-4-yl)oxy)pyridin-2-yl)-1-isopropyl-4-oxo-1,4-dihydropyridine-3-carboxamide] | 1.3 | 12 | 10 | 3.5
10 | CNC(=O)Cn1cc(C(=O)Nc2ccc(Oc3ccnc4cc(OC)c(OC)cc34)cn2)c(=O)c(-c2ccc(F)cc2)c1 [Example 22] | 80 | 20 | 2 | –
11 | COc1cc2nccc(Oc3ccc(NC(=O)c4cn(CC(=O)N(C)C)cc(-c5ccc(F)cc5)c4=O)nc3)c2cc1OC [Example 23, N-(5-((6,7-dimethoxyquinolin-4yl)oxy)pyridin-2-yl)-1-(2-(dimethylamino)-2-oxoethyl)-5-(4-fluorophenyl)-4-oxo-1,4-dihydropyridine-3-carboxamide] | 105 | 60 | 1 | –
12 | COc1cc2nccc(Oc3ccc(NC(=O)c4cn(CC(=O)N(C)C)cc(-c5ccc(F)c(F)c5)c4=O)nc3)c2cc1OC [Example 24, 5-(3,4-difluorophenyl)-N-(5-((6,7-dimethoxyquinolin-4-yl)oxy)pyridin-2-yl)-1-(2-(dimethylamino)-2-oxoethyl)-4-oxo-1,4-dihydropyridine-3-carboxamide] | 210 | 95 | 1 | –
13 | COc1cc2nccc(Oc3ccc(NC(=O)c4cn(CC(=O)N(C)C)cc(-c5ccc(Cl)cc5)c4=O)nc3)c2cc1OC [Example 25] | 136 | 64 | 2 | –
14 | COc1cc2nccc(Oc3ccc(NC(=O)c4c[nH]cc(-c5ccc(F)cc5)c4=O)nc3)c2cc1OC [Example 26, N-(5-((6,7-dimethoxyquinolin-4yl)oxy)pyridin-2-yl)-5-(4-fluorophenyl)-4-oxo-1,4-dihydropyridine-3-carboxamide] | 44 | 30 | 7 | –
15 | COc1cc2nccc(Oc3ccc(NC(=O)c4cn(C(C)C)c(C)c(-c5ccc(F)cc5)c4=O)nc3)c2cc1OC [Example 27, N-(5-((6,7-dimethoxyquinolin-4yl)oxy)pyridin-2-yl)-5-(4-fluorophenyl)-1-isopropyl-6-methyl-4-oxo-1,4-dihydropyridine-3-carboxamide] | 5.5 | 160 | 1 | –
